For test [1], the target named is Serine/threonine-protein kinase B-raf (Homo sapiens, UniProt P15056). As to the kind of experiment: Inhibition of human recombinant B-Raf expressed in Sf9 cells assessed as inhibition of Mek1 phosphorylation.
The subject of a further test is A-375. As to the kind of experiment: Cytotoxicity against human A375 cells expressing B-RafV600E mutant. Type of test: functional, cell-based.
A further test deals with Aurora kinase B (Homo sapiens, UniProt Q96GD4). As to the kind of experiment: Inhibition of Aurora B.
Test [2] deals with Cyclin-dependent kinase 1 (Homo sapiens, UniProt P06493). Nature of the test: Inhibition of CDK1.
The target of test [3] is Cyclin-dependent kinase 2 (Homo sapiens, UniProt P24941). Nature of the test: Inhibition of CDK2.
In test [4] the target is Serine/threonine-protein kinase Chk1 (Homo sapiens, UniProt O14757). As to the kind of experiment: Inhibition of CHK1.
Test [5] addresses Casein kinase I isoform gamma-1 (Homo sapiens, UniProt Q9HCP0). As to the kind of experiment: Inhibition of CK1gamma1.
The target in test [6] is Mitogen-activated protein kinase 1 (Homo sapiens, UniProt P28482). As to the kind of experiment: Inhibition of ERK2.
For test [7], the target named is Tyrosine-protein kinase Fyn (Homo sapiens, UniProt P06241). Nature of the test: Inhibition of FYN.
The target of test [8] is Mitogen-activated protein kinase kinase kinase kinase 2 (Homo sapiens, UniProt Q12851). As to the kind of experiment: Inhibition of GCK.
For test [9], the target named is Tyrosine-protein kinase HCK (Homo sapiens, UniProt P08631). Nature of the test: Inhibition of HCK.
For test [10], the target named is Inhibitor of nuclear factor kappa-B kinase subunit alpha (Homo sapiens, UniProt O15111). As to the kind of experiment: Inhibition of IKKalpha.
The target of test [11] is Inhibitor of nuclear factor kappa-B kinase subunit beta (Homo sapiens, UniProt O14920). As to the kind of experiment: Inhibition of IKK-beta.
The target in test [12] is Tyrosine-protein kinase Lyn (Homo sapiens, UniProt P07948). As to the kind of experiment: Inhibition of LYN.
For test [13], the target named is Hepatocyte growth factor receptor (Homo sapiens, UniProt P08581). Nature of the test: Inhibition of Met.
Test [14] has as its target MAP kinase-activated protein kinase 2 (Homo sapiens, UniProt P49137). Nature of the test: Inhibition of MK2.
For test [15], the target named is Platelet-derived growth factor receptor alpha (Homo sapiens, UniProt P16234). Nature of the test: Inhibition of PDGFRalpha.
The nature of test [16]: Inhibition of PKA.
Test [17] concerns the target Protein kinase C alpha type (Homo sapiens, UniProt P17252). Nature of the test: Inhibition of PKCalpha.
Test [18] has as its target Protein kinase C beta type (Homo sapiens, UniProt P05771). Nature of the test: Inhibition of PKCbeta.
The target of test [19] is Rho-associated protein kinase 1 (Homo sapiens, UniProt Q13464). As to the kind of experiment: Inhibition of ROCK1.
For test [20], the target named is Ribosomal protein S6 kinase alpha-1 (Homo sapiens, UniProt Q15418). As to the kind of experiment: Inhibition of RSk1.
In test [21] the target is Proto-oncogene tyrosine-protein kinase Src (Homo sapiens, UniProt P12931). Nature of the test: Inhibition of SRC.
Test [22] is described as follows: Inhibition of VEGFR2.
For test [23], the target named is Mitogen-activated protein kinase 14 (Homo sapiens, UniProt Q16539). Nature of the test: Inhibition of p38alpha.
For test [24], the target named is Tyrosine-protein kinase ABL1 (Homo sapiens, UniProt P00519).
Another test has as its system HT-29. Nature of the test: Cytotoxicity against human HT-29 cells expressing B-RafV600E mutant. The format is functional, cell-based.
The subject of the next test is Caco-2. As to the kind of experiment: Cytotoxicity against human Caco-2 cells expressing wild type B-Raf. The format is functional, cell-based.

Chain of Serine/threonine-protein kinase B-raf (P15056 whole entry): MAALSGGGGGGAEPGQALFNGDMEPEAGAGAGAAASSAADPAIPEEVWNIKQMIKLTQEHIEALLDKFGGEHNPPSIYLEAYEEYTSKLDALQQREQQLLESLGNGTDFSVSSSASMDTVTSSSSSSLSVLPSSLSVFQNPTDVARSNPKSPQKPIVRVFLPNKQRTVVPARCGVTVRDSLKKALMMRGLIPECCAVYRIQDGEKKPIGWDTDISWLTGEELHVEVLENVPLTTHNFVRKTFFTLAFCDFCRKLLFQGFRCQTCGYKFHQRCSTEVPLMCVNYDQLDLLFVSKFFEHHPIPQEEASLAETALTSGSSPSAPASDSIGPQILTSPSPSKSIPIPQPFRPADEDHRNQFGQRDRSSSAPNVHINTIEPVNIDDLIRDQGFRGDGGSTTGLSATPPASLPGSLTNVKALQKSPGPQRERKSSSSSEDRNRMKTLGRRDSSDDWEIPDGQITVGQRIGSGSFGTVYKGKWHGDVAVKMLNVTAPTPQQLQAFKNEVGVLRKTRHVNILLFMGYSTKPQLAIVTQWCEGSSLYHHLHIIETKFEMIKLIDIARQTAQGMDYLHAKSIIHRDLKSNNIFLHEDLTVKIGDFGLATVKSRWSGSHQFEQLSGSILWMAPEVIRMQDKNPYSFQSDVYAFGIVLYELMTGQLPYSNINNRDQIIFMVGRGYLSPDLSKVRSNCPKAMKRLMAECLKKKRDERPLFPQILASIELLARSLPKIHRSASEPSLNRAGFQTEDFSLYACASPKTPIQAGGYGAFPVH
Chain of MAP kinase-activated protein kinase 2 (P49137 whole entry): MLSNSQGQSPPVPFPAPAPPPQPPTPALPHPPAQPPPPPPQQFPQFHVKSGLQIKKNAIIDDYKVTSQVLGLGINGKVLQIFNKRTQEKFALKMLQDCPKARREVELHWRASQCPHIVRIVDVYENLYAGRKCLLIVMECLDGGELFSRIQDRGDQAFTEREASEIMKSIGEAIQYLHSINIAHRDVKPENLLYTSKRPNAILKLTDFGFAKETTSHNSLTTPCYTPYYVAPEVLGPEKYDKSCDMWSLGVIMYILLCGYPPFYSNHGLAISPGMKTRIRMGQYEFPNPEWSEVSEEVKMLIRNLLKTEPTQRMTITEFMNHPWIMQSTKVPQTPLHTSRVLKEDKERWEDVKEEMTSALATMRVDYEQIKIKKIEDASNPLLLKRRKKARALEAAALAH
Chain of Aurora kinase B (Q96GD4 whole entry): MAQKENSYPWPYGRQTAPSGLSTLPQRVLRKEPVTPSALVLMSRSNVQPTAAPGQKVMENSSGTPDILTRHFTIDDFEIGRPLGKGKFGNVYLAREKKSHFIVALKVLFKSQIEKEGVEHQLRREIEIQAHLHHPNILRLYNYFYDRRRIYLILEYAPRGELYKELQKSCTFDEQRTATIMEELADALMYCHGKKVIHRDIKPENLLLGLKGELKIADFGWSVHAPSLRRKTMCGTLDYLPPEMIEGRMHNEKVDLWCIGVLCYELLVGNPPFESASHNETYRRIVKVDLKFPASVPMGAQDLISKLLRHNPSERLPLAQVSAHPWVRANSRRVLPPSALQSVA
Chain of Tyrosine-protein kinase HCK (P08631 whole entry): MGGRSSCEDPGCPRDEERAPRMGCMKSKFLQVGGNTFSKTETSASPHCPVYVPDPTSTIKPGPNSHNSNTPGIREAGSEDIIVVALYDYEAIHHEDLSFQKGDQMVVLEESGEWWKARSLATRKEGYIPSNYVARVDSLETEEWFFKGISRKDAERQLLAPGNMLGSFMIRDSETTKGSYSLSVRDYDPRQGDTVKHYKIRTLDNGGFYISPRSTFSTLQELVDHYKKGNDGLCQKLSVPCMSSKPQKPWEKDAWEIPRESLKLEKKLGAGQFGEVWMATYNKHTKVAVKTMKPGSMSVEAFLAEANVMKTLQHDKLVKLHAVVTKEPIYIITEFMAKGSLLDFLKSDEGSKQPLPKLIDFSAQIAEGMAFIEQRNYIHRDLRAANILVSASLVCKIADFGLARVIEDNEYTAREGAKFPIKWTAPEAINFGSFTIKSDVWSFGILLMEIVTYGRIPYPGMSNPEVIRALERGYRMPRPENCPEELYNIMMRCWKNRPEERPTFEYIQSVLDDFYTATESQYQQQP
Chain of Platelet-derived growth factor receptor alpha (P16234 whole entry): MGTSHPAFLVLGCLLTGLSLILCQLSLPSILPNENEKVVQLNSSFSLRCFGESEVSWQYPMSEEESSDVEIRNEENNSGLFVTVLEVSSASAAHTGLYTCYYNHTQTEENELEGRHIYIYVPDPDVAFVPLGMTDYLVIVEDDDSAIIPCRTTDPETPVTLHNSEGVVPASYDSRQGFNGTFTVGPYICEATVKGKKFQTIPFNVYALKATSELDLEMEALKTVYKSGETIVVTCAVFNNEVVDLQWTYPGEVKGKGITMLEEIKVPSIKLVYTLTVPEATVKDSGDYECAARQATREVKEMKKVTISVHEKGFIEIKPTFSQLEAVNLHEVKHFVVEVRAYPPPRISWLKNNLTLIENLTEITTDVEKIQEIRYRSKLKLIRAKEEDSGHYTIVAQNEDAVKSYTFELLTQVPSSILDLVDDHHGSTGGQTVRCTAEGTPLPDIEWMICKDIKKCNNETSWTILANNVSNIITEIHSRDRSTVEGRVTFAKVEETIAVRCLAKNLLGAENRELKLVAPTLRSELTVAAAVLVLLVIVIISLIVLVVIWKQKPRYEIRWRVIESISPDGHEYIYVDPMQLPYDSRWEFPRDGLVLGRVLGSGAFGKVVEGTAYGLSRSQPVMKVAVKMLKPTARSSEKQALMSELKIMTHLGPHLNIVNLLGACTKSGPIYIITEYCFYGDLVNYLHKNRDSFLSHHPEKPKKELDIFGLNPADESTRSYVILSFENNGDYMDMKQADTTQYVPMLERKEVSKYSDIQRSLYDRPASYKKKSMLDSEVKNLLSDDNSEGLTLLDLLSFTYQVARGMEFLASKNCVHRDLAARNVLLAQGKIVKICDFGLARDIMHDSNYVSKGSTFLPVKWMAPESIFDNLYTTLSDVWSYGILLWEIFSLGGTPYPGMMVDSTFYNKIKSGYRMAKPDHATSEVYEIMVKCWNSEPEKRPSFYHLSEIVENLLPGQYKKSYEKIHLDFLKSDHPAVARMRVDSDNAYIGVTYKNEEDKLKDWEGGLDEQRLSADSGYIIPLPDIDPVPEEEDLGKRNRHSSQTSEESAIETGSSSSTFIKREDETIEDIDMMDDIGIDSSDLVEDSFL
Chain of Mitogen-activated protein kinase 1 (P28482 whole entry): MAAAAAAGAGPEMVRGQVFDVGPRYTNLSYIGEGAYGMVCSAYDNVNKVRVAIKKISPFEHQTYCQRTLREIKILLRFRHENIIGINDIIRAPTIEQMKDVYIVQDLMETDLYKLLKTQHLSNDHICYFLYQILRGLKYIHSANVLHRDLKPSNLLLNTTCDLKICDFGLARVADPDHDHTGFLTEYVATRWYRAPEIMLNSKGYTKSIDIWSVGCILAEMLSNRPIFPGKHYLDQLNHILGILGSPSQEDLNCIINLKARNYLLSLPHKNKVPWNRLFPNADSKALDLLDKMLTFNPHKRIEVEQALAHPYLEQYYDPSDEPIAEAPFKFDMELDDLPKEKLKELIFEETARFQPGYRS
Chain of Protein kinase C beta type (P05771 whole entry): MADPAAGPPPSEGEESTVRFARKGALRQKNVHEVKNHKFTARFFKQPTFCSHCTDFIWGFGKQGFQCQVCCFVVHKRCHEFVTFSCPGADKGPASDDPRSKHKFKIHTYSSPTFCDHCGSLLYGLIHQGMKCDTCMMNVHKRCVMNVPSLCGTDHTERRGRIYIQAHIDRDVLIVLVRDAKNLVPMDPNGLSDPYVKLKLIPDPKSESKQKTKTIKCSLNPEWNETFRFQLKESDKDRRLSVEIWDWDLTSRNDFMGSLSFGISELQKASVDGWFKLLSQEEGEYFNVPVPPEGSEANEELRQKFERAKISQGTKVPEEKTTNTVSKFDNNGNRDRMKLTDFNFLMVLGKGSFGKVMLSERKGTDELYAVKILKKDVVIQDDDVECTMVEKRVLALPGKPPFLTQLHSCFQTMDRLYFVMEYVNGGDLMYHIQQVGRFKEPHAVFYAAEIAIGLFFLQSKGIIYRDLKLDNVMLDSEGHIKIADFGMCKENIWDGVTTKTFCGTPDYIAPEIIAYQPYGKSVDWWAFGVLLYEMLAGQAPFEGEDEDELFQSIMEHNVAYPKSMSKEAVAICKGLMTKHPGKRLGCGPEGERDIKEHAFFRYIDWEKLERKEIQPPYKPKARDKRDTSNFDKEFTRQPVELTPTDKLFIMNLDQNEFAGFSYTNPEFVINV

Take `Cc1cc(N2C[C@@H]3C[C@H]2CN3C)ccc1-c1ccnc2c(-c3cccc(O)c3)c(-c3ccncc3)nn12`: the half-inhibitory concentration (IC50) in [1] is less than 0.00032 µM; in the test on A-375, 0.031 µM.

As to `CCOC(=O)c1cnn2c(-c3cccc(NC(=O)c4cccc(C(F)(F)F)c4)c3)ccnc12`, the IC50 in test [1] is 1.5 µM.

Consider `COc1cccc(-c2c(-c3ccncc3)nn3c(-c4ccc(N5C[C@@H]6C[C@H]5CN6)cc4)ccnc23)c1`, for which the IC50 came to 0.012 µM in [1] and 1.1 µM in the test on A-375.

`COc1cc(-c2c(-c3ccncc3)nn3c(-c4ccc(N5C[C@@H]6C[C@H]5CN6C)cc4C)ccnc23)ccc1F`: the IC50 was determined as 0.001 µM in test [1] and 0.933 µM in the test with A-375.

As for `Cc1cc(N2C[C@@H]3C[C@H]2CN3C)ccc1-c1ccnc2c(-c3ccc(F)c(O)c3)c(-c3ccncc3)nn12`, the IC50 was less than 0.00032 µM in test [1] and 0.015 µM in the test with A-375.

`Oc1cc(-c2c(-c3ccncc3)nn3c(-c4ccc(N5C[C@@H]6C[C@H]5CN6)cc4)ccnc23)ccc1F`: the IC50 in test [1] was less than 0.00032 µM; with A-375, 0.15 µM.

As for `CC(=O)N1C[C@@H]2C[C@H]1CN2c1ccc(-c2ccnc3c(-c4ccc(F)c(O)c4)c(-c4ccncc4)nn23)cc1`, the IC50 in the test on A-375 worked out at 0.21 µM.

`Oc1cccc(-c2c(-c3ccncc3)nn3c(-c4ccc(N5C[C@@H]6C[C@H]5CN6)cc4)ccnc23)c1`: the IC50 in test [1] was determined as 0.00049 µM; in the test with A-375, 0.3 µM.

As to `CN1C[C@@H]2C[C@H]1CN2c1ccc(-c2ccnc3c(-c4ccc(F)c(O)c4)c(-c4ccncc4)nn23)cc1`, the IC50 in test [1] was less than 0.00032 µM; in the test on A-375 it was 0.076 µM.

The compound `COc1cccc(-c2c(-c3ccncc3)nn3c(-c4ccc(N5C[C@@H]6C[C@H]5CN6C)cc4)ccnc23)c1` returned an IC50 with A-375 of 0.76 µM.

Turning to `CN1C2CCC1CN(c1ccc(-c3ccnc4c(-c5ccc(Cl)c(O)c5)c(-c5ccncc5)nn34)cc1)C2`, the values for the IC50 (in [1]; in the test with A-375) were less than 0.00032 µM and 0.17 µM, respectively.

In the case of `Oc1cccc(-c2c(-c3ccncc3)nn3c(-c4ccc(N5C[C@@H]6C[C@H]5CN6)cc4Cl)ccnc23)c1`, the values for the IC50 (in test [1]; in the test with A-375) were less than 0.00032 µM and 0.016 µM, respectively.

As to `CN1C[C@@H]2C[C@H]1CN2c1ccc(-c2ccnc3c(-c4cccc(O)c4)c(-c4ccncc4)nn23)cc1`, the half-maximal inhibitory concentration (IC50) was found to be 0.00038 µM in test [1]; 0.077 µM with A-375; 25.5 µM at Aurora kinase B; 28.4 µM in test [2]; 26.4 µM in test [3]; 18.6 µM in test [4]. The IC50 was 9.51 µM in [5]; more than 50 µM in test [6]; 1.94 µM in [7]; 4.1 µM in [8]; 1.24 µM in [9]; more than 50 µM in [10]. The IC50 in test [11] is more than 50 µM; in test [12], 1.76 µM; in test [13], 3.1 µM; in [14], 17.1 µM; in test [15], 6.56 µM; in [16] it was 1.79 µM. For the same compound, the IC50 in test [17] is 2.46 µM; in test [18], 0.119 µM; in [19] it was 17.6 µM; in test [20] it was 9.71 µM; in [21] it was 0.675 µM; in [22], 0.222 µM. In addition, the 50% inhibitory concentration (IC50) in test [23] was 0.069 µM; in test [24], 0.563 µM.

For `Oc1cccc(-c2c(-c3ccncc3)nn3c(-c4ccc(N[C@@H]5CN6CCC5CC6)cc4)ccnc23)c1`, the IC50 in test [1] came to 0.0015 µM; with A-375, 0.37 µM.

As for `CCN1C[C@@H]2C[C@H]1CN2c1ccc(-c2ccnc3c(-c4ccc(F)c(O)c4)c(-c4ccncc4)nn23)cc1`, the IC50 in test [1] came to 0.00051 µM; in the test on A-375 it was 0.2 µM.

The compound `Cc1cc(N2C[C@@H]3C[C@H]2CN3)ccc1-c1ccnc2c(-c3cccc(O)c3)c(-c3ccncc3)nn12` had an IC50 in the test with A-375 of 0.065 µM.

In the case of `COc1cc(-c2c(-c3ccncc3)nn3c(-c4ccc(N5CC6CCC(C5)N6C)cc4)ccnc23)ccc1Cl`, the IC50 in [1] came out at 0.0097 µM; in the test with A-375, 0.63 µM.

As for `COc1cc(-c2c(-c3ccncc3)nn3c(-c4ccc(N5C[C@@H]6C[C@H]5CN6)cc4)ccnc23)ccc1F`, the midpoint of inhibition in the test with A-375, the IC50, lay at 1.2 µM.

With `Oc1cccc(-c2c(-c3ccncc3)nn3c(-c4ccc(N5C[C@@H]6C[C@H]5CN6)cc4F)ccnc23)c1`, the values for the IC50 (in [1]; with A-375) were less than 0.00032 µM and 0.023 µM, respectively.

In the test on A-375, `COc1cc(-c2c(-c3ccncc3)nn3c(-c4ccc(N5C[C@@H]6C[C@H]5CN6C)cc4)ccnc23)ccc1F` returned an IC50 of 6 µM.

As for `CN1C2CCC1CN(c1ccc(-c3ccnc4c(-c5cccc(O)c5)c(-c5ccncc5)nn34)cc1)C2`, the IC50 is 0.0009 µM in test [1], 0.3 µM in the test with A-375, 0.27 µM in the test on HT-29 and 1.3 µM in the test on Caco-2.

For `CN1C[C@@H]2C[C@H]1CN2c1ccc(-c2ccnc3c(-c4cccc(O)c4)c(-c4ccncc4)nn23)c(F)c1`, the IC50 in test [1] was less than 0.00032 µM; in the test with A-375, 0.012 µM.

As to `Oc1cccc(-c2c(-c3ccncc3)nn3c(-c4ccc(N[C@H]5CN6CCC5CC6)cc4)ccnc23)c1`, the IC50 in [1] is 0.001 µM; with A-375, 0.385 µM.

`COc1cccc(-c2c(-c3ccncc3)nn3c(-c4ccc(N5CC6CCC(C5)N6C)cc4)ccnc23)c1`: the IC50 in [1] stood at 0.017 µM; in the test on A-375 it was 1.9 µM.

In the case of `Oc1cccc(-c2c(-c3ccncc3)nn3c(-c4ccc(NCC56CCN(CC5)CC6)cc4)ccnc23)c1`, the half-maximal inhibitory concentration (IC50) in test [1] is 0.002 µM; in the test on A-375 it was 0.93 µM.

Turning to `CN1C[C@@H]2C[C@H]1CN2c1ccc(-c2ccnc3c(-c4cccc(O)c4)c(-c4ccncc4)nn23)c(Cl)c1`, the IC50 is less than 0.00032 µM in test [1] and less than 0.01 µM with A-375.

As for `COc1cccc(-c2c(-c3ccncc3)nn3c(-c4ccc(N5C[C@@H]6C[C@H]5CN6)cc4F)ccnc23)c1`, the IC50 in test [1] amounted to 0.00044 µM; with A-375, 0.504 µM.
